Columns and labels:
[1] = target: T1, prostacyclin synthetase (Sus scrofa, UniProt A0A5G2QT35); details: pre-incubation of the enzyme with the selective PGI2 synthetase inhibitor; cited from earlier work
T1 construct: Pig aorta microsomes; from tissue; host or cells: pig aorta microsomes
T1 sequence (A0A5G2QT35 1-497): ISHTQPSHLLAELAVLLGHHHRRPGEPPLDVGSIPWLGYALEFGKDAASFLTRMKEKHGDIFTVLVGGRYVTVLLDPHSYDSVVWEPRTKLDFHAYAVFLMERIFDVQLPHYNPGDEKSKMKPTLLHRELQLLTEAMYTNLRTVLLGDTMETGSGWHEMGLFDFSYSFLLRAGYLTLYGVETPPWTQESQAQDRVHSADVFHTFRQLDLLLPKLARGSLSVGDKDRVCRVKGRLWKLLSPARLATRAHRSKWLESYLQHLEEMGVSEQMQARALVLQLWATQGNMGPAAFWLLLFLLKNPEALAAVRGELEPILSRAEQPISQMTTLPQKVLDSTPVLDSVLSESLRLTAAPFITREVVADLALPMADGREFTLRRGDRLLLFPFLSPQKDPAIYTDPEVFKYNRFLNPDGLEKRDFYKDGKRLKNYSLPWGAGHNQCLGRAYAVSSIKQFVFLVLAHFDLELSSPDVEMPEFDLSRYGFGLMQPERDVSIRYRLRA

[2] = tested on: human blood platelet aggregation; details: variety of aggregating agents; cited from earlier work
[3] = tested on: rabbit; details: intravenous arachidonic acid, rabbits; cited from earlier work
[4] = tested on: cyclo-oxygenase enzyme; details: in words; cited from earlier work
[5] = tested on: stroke and heart attack; details: clinical evaluation; cited from earlier work
[6] = tested on: aggregation of platelets; details: abdominal aorta of rats in vivo; cited from earlier work
[7] = target: T2, thromboxane synthetase (Homo sapiens, UniProt P24557); experiment: Thromboxane A2 (TxA2) synthetase in vitro enzyme assay; format: biochemical; details: for IC50: indomethacin-pretreated human platelet microsomes, PGH2, 0° C., 2 min, 5 min pre-incubation, read-out: Concentration causing 50% inhibition of (1) thromboxane synthetase; for Ratio of (3) to (1): prostacyclin synthetase / thromboxane synthetase 50% inhibition concentrations
T2 construct: Indomethacin-pretreated human platelet microsomes; from tissue; host or cells: human platelet microsomes
T2 sequence (P24557 1-533): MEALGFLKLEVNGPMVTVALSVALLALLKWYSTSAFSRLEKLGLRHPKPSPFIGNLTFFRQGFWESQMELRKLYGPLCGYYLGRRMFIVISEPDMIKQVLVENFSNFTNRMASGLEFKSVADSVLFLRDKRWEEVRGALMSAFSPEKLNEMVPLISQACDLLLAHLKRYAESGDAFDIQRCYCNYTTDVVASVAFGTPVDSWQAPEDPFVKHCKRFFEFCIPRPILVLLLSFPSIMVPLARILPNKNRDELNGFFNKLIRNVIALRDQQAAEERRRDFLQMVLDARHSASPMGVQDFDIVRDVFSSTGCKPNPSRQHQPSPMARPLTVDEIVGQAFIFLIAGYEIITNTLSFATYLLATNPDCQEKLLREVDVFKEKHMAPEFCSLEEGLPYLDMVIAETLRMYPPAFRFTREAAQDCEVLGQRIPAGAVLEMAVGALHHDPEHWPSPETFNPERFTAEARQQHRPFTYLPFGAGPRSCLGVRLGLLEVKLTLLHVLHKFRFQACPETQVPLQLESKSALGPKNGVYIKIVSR
Procedure: Indomethacin-pretreated human platelet microsomes (Science, 1976, 193, 163) are incubated with PGH2 (produced as described in test No. 1) at 0° C. for a period of two minutes, and aliquots of the reaction mixture are then superfused over two rabbit aorta spirals which are separated by a delay coil (2 min.). The latter is required in order to allow for the selective decay of the more unstable thromboxane A2 (Proc. Nat. Acad. Sci., 1975, 72, 2994), thereby enabling separate measurement of the increased isometric tension due to the TxA2 formed and the PGH2 remaining to take place. The test compound is then pre-incubated with the enzyme for a period of five minutes, and its ability to inhibit the thromboxane synthetase enzyme is measured as its reduction of the TxA2 component of the isometric tension.

[8] = target: T3, cyclo-oxygenase (Ovis aries, UniProt P05979); experiment: Cyclo-oxygenase in vitro enzyme assay; format: biochemical; details: ram seminal vesicle microsomes, arachidonic acid 100 μM, 22° C., 1 min; 5 min pre-incubation; read-out: Concentration causing 50% inhibition of (2) cyclo-oxygenase
T3 construct: Ram seminal vesicle microsomes; from tissue; host or cells: ram seminal vesicle microsomes
T3 sequence (P05979 25-600): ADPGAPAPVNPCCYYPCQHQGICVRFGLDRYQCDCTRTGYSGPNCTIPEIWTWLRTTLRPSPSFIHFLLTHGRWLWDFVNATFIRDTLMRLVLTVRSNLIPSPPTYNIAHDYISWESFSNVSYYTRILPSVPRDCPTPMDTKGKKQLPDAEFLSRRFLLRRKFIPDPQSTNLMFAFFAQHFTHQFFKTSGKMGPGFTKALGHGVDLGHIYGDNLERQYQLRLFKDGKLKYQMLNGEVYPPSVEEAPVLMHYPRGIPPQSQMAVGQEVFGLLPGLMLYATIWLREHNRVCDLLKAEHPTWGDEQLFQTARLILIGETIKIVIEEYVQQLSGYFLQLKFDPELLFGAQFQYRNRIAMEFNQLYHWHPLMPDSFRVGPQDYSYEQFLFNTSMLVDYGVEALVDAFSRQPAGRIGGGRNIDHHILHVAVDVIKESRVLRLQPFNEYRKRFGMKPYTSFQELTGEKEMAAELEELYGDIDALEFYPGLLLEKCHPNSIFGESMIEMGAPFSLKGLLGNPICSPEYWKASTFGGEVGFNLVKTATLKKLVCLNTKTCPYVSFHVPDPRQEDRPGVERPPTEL
Procedure: The effect of the compounds of the formula (I) on the thromboxane synthetase enzyme, and the prostacyclin synthetase and cyclo-oxygenase enzymes has been measured by the following in vitro enzyme assay tests:
Ram seminal vesicle microsomes (Biochemistry, 1971, 10, 2372) are incubated with arachidonic acid (100 μM) at 22° C. for a period of one minute so as to produce PGH2, and aliquots of this reaction mixture are then injected into a stream of Krebs-bicarbonate at 37° C. [containing a mixture of antagonists (Nature, […], 218, 1135) and indomethacin (Brit. J. Pharmacol., 1972, 45, 451)] which is superfusing a spirally-cut rabbit aorta strip (Nature, 1969, 223, 29). The ability of a compound to inhibit the enzyme is measured by comparing the increases in isometric tension produced by PGH2 in the absence of the test compound and again, following pre-incubation of the enzyme with the test compound for a period of five minutes.

[9] = target: T1, prostacyclin synthetase; experiment: Prostacyclin (PGI2) synthetase in vitro enzyme assay; format: biochemical; details: pig aorta microsomes, PGH2, 22° C., 30 seconds; 5 min pre-incubation; read-out: Concentration causing 50% inhibition of (3) prostacyclin synthetase

IC50 [7] [µM]	Ratio of (3) to (1) [7]	IC50 [8] [µM]	IC50 [9] [µM]	SMILES	also measured
				CCCCCC(/C=C/C=C\C/C=C\C/C=C\CCCC(=O)O)OO (centres unmarked) [15-hydroperoxy-arachidonic acid]	prevention of the decrease in PGH2-induced tension [1]: prevented completely
				CC(=O)Oc1ccccc1C(=O)O [aspirin]	inhibitory activity in vitro against aggregating agents [2]: show inhibitory activity in vitro; protection from the lethal effect of arachidonic acid injection [3]: protect the rabbit from the lethal effect of the injection; effect on prostacyclin and thromboxane A2 levels [4]: reduce both the prostacyclin and thromboxane A2 levels; inhibition of the cyclo-oxygenase enzyme [4]: inhibit the cyclo-oxygenase enzyme; clinical results in prevention of stroke and heart attack [5]: some encouraging results
				O=C1C(CC[S+]([O-])c2ccccc2)C(=O)N(c2ccccc2)N1c1ccccc1 (centres unmarked) [sulphinpyrazone]	inhibitory activity in vitro against aggregating agents [2]: show inhibitory activity in vitro; protection from the lethal effect of arachidonic acid injection [3]: protect the rabbit from the lethal effect of the injection; prevention of aggregation of platelets in extra corporeal loop [6]: prevent the aggregation of platelets
0.00025	8,000	> 100	2	Cc1ccc(-c2[nH]c3ccccc3c2Cn2ccnc2)cc1 [XVII, 3-(imidazol-1-ylmethyl)-2-(p-tolyl)indole]	
0.012	2,500	> 100	30	Cc1[nH]c2ccccc2c1Cn1ccnc1 [II, 3-(imidazol-1-ylmethyl)-2-methylindole]	
0.062	65	> 100	4	COc1ccc2[nH]c(C)c(Cn3ccnc3)c2c1 [Example V, 3-(imidazol-1-ylmethyl)-5-methoxy-2-methylindole]	
0.0003	70,000	> 100	21	c1ccc2c(Cn3ccnc3)c(C3CCCCC3)[nH]c2c1 [XII, 2-cyclohexyl-3-(imidazol-1-ylmethyl)indole]	
0.01	1,200	> 100	12	c1ccc(-c2[nH]c3ccccc3c2Cn2ccnc2)cc1 [III, 3-(imidazol-1-ylmethyl)-2-phenylindole]	
0.1	170	> 100	17	Brc1ccc2[nH]cc(Cn3ccnc3)c2c1 [IX, 5-bromo-3-(imidazol-1-ylmethyl)indole]	
0.017	> 6,000	> 100	> 100	CC(C)c1[nH]c2ccccc2c1Cn1ccnc1 [Example I, 3-(imidazol-1-ylmethyl)-2-isopropylindole]	
0.03	22,000	> 1000	650	c1ccc2c(Cn3ccnc3)c[nH]c2c1 [*, 3-(imidazol-1-ylmethyl)-indole]	
0.0066	450	> 100	3	Oc1ccc(-c2[nH]c3ccccc3c2Cn2ccnc2)cc1 [L, 2-(p-hydroxyphenyl)-3-(imidazol-1-ylmethyl)indole]	
0.2	500	> 100	100	COc1ccc2[nH]cc(Cn3ccnc3)c2c1 [IV, 3-(imidazol-1-ylmethyl)-5-methoxyindole]	
0.0084	> 12,000	> 100	> 100	Cc1cccc2c(Cn3ccnc3)c[nH]c12 [Example X, 3-(imidazol-1-ylmethyl)-7-methylindole]	
0.065	15	> 100	1	Cl.c1ccc(Cn2cc(Cn3ccnc3)c3ccccc32)cc1 [Example XXVI, 1-benzyl-3-(imidazol-1-ylmethyl)indole hydrochloride]	
0.003	13,000	> 100	40	Clc1ccccc1-c1[nH]c2ccccc2c1Cn1ccnc1 [Example XX, 2-(o-chlorophenyl)-3-(imidazol-1-ylmethyl)indole]	
0.002	> 50,000	> 100	> 100	Cn1cc(Cn2ccnc2)c2ccccc21 [XXVII, 3-(imidazol-1-ylmethyl)-1-methylindole]	

Source: US4217357A, “Inhibition of thromboxane synthetase with 3-(imidazol-1-ylalkyl)indoles” (Pfizer Inc., priority 1978, dated 1980)
